Results as given in patent US20260007639A1, “COMPOUNDS FOR THE TREATMENT OF NEUROMUSCULAR DISORDERS” (NMD PHARMA A/S, priority 2017, published 2026).

Legend:
rat soleus muscles [1] = assay: Recovery of force in isolated rat soleus nerve-muscle preparations after 115 nM tubocurarine, 50 μM compound (Table 8); details: 40 mins exposure
Method: Force traces from a representative muscle stimulated to contract in 1) control condition before addition of neuromuscular blocking agent, 2) the force response to stimulation after 90 minutes incubation with Tubocurarine. […] The traces presented in FIG. 12A (1, 2, 3), correspond to the dotted lines in FIG. 12B, respectively.
Recovery of force is quantified as the percentage of the force prior to tubocurarine that is recovered by the compound.
The current invention relates to compounds that inhibit CIC-1 ion channels and increase muscle excitability and thereby improve muscle function in clinical conditions where muscle activation is failing. Such conditions result in loss of contractile function of skeletal muscle, weakness and excessive fatigue. In this series of experiments the compounds were tested for their ability to restore contractile function of isolated rat muscle when the neuromuscular transmission had been compromised akin to neuromuscular disorders.
Experimentally, soleus muscles from 4-5 wk old rats were isolated with the motor nerve remaining attached. The nerve-muscle preparations were mounted in experimental setups that enabled electrical stimulation of the motor nerve. Stimulation of the motor nerve led to activation of the muscle fibres and ensuing force production that was recorded.
After mounting the nerve-muscle preparation in the experimental setup, the contractile function of the muscle was initially assessed under the control conditions (FIG. 2A). […] The experimental condition mimics the failing neuromuscular transmission in a range of neuromuscular disorders. After addition of tubocurarine the contractile force declined over the next 90 mins to 10-50% of the control force. 50 μM of the test compound was then added and the contractile force recovered despite the continued presence of tubocurarine. To quantify the ability of the compound to restore force the percentage of the initial force that was restored was determined after 40 mins of compound exposure (FIG. 2B) and the point increase is reported in Table 8.

CIC-1 channels = molecular target: T1, CIC-1 channels (Rattus norvegicus, UniProt P35524); assay: Electrophysiological measurement of compound inhibition of CIC-1 (Gm) in rat soleus muscle fibres: EC50 (Table 7)
T1 sequence (P35524 1-994): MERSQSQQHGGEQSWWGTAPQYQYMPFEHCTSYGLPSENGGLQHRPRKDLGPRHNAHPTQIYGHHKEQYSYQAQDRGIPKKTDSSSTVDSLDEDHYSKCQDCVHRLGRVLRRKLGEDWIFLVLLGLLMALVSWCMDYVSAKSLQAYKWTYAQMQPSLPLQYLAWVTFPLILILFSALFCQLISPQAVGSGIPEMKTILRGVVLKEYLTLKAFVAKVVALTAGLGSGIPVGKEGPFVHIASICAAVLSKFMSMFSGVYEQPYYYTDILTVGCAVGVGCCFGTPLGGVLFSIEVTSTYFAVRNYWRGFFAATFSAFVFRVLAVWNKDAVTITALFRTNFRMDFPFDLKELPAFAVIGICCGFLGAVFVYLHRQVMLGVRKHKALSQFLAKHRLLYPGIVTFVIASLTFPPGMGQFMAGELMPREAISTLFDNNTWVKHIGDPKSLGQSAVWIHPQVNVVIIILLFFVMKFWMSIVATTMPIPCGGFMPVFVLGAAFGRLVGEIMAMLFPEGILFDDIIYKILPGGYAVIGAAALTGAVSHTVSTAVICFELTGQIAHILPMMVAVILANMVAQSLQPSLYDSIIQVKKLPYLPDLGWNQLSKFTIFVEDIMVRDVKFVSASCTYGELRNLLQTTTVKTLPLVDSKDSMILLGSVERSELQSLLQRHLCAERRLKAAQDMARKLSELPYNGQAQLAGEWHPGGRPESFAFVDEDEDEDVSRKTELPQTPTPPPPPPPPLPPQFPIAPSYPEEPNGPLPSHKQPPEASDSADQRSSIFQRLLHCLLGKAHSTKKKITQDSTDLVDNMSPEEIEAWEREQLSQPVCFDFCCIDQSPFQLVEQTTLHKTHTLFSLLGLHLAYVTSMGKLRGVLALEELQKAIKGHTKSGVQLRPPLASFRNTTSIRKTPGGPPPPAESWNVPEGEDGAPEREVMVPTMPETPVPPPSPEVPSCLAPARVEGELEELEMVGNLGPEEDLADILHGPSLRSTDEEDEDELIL

human CIC-1 channels = molecular target: T2, human CIC-1 channels (Homo sapiens, UniProt P35523); assay: Automated patch-clamp on human CIC-1 expressed in CHO cells: shift of half activation voltage ΔV1/2; format: cell-based; details: compound in intracellular solution vs control cell patches; CHO cells expressing human CIC-1
T2 construct: host or cells: CHO (Chinese hamster ovary) cells constitutively expressing human ClC-1
Method: FIGS. 13A-13B: FIG. 13A illustrates the voltage protocol used to evoke currents in whole cell patches of CHO cells expressing human CIC-1 channels.
Experiments were performed using an automated patch clamp system that allowed high throughput testing of whole cell patches together with both intracellular and extracellular addition of compound.
Automated whole cell patch clamp experiments were performed with the Qpatch 16 system (Sophion Bioscience, Ballerup, Denmark) at room temperature. Data acquisition and analysis were performed in the Qassay software (ver. 5.6, Odense).
To evoke CIC-1 currents in whole cell patches, the membrane potential was initially stepped from a holding potential of −30 mV to +60 mV for 100 ms and then to various test voltages (sweeps) ranging from +120 mV to −140 mV in steps of 20 mV for 300 ms. To obtain tail currents, the membrane potential was stepped to −100 mV after each test voltage for 300 ms and then relaxed to −30 mV for 2 sec between sweeps (FIG. 3).
I/V relationships for whole cell instant and steady state current amplitudes were obtained by plotting average current densities at the beginning and at the end of the 300 ms step against the membrane potential (FIG. 4).
In order to determine the relative overall open probability (Po), the instantaneous tail currents were normalized to the maximal tail current obtained following the most positive voltage step and plotted against the test voltage. Plots of normalized tail currents from each whole cell patch were then fitted to a Boltzmann function allowing determination of half activation voltages (V1/2, FIG. 5).
For automated patch clamp experiments extracellular solutions contained: 2 mM CaCl2), 1 mM MgCl2, 10 mM HEPES, 4 mM KCl, 145 mM NaCl, 10 mM Glucose, pH adjusted to 7.4 with NaOH (2 M). Osmolality adjusted to ˜320 using sucrose.
Intracellular solutions contained: 80 mM CsF, 60 mM CsCl, 5/1 mM KOH/EGTA, 10 mM HEPES, 10 mM NaCl, pH adjusted to 7.2 with NaOH (2 M). Osmolality adjusted to ˜320 mOsm using sucrose.
Cells used in patch clamp experiments were Chinese hamster ovary cells (CHO) constitutively expressing human CIC-1 channels. The amino acid sequence encoded by the cDNA used to create this cell line was identical to the translated sequence for GenBank accession number NM_000083.2. Cells were produced by Charles River (Catalogue CT6175, Cleveland OH, USA) in a cryopreserved format. Experiments were performed on the cells directly after thawing (3×10^6 cells used in each experiment).
To evaluate the compound effect on CIC-1, when applied directly to the intracellular side of the cell membrane, the half activation voltage, V1/2, was determined from whole cell patches with compound added to the intracellular solution and then compared to V1/2 determined from control cell patches with only vehicle added to the intracellular solution. Additionally, the effect of extracellular added compound was evaluated by determine V1/2 and steady state current amplitudes before and after exchanging the extracellular solution to contain compound.
The difference in half activation voltage of CIC-1 channels, ΔV1/2, was determined as the difference between the cell patches treated intracellularly with compound and control cells patches and is reported in Table 4 below. A positive shift in ΔV 1/2 is reflecting CIC-1 channel inhibition by the tested compound. P-values of <0.05 is considered significant.

female Lewis rats = assay: In situ isometric hindlimb force in anaesthetised rats with neuromuscular transmission partially inhibited by Cisatracurium; format: in vivo, rat; details: 80 Hz stimulation, Cisatracurium infusion
Method: Isometric hindlimb force was measured in 12-week old female Lewis rats in the presence and absence of compound.
Rats were placed under anesthesia with isoflurane (2-4%), intubated and subsequently connected to a micro ventilator (Microvent 1, Hallowell EMC, US). Two stimulation electrodes were inserted through the skin to stimulate the sciatic nerve. A small incision was made proximal to the ankle, to expose the Achilles tendon, which was tied by cotton string, and connected to a force transducer (Fort250, World Precision Instruments) with adjustable position (Vernier control). The Achilles tendon was then cut distal to the attached cotton string. The rat was placed on a heated pad, and to prevent movement artefacts from contraction of the ankle dorsiflexors, the foot was fixated by tape on a footplate.
Muscle contractile properties were assessed by applying an electrical current (under supramaximal voltage conditions) to the nerve and recording the force generated by the muscle. The muscle was stretched until maximal force was obtained, when assessed by 2 Hz stimulation. Isometric force was measured every 30 seconds at 12 Hz (Twitch), 10 pulses, and at every 5 minutes at 80 Hz (Tetanic) for 1 second (80 pulses). This stimulation pattern was employed throughout the experiment, expect in few cases where 80 Hz stimulation was replaced by 12 Hz (10 pulses). […] When the level of neuromuscular inhibition was stable, the test article was injected i.v. at the chosen concentration. The effect of test article was assessed on its ability to increase force generated from the stimulation pattern applied. The effect was assessed in the ability to increase force per se (tetanic, 80 Hz, stimulation), and the ratio between individual twitch peaks (12 Hz stimulation). The effect was monitored for at least 1 hour after injection of test article. In addition, the time from injection of test article to maximal effect on force (both twitch and tetanic) was noted and the time for the effect to disappear (return to baseline), if possible. When appropriate the infusion of neuromuscular blocking agent was ceased, with the stimulation pattern continued, and the return of force to control levels was monitored. Animals were sacrificed by cervical dislocation while still fully sedated.

rat soleus muscles [2] = assay: Tubocurarine concentration required to depress nerve-stimulated force by 50% (Kd,tub), combination with neostigmine or pyridostigmine (Table 4); details: pre-incubation with 50 μM C8, 10 nM neostigmine or both
Method: Muscles from 4-week-old rats were stimulated to contract by activating the motor nerve with short duration pulses in field stimulation. Muscles contracted every 10 min for 2 s in response to 30 Hz stimulation. Four different experimental conditions were used. […] After this pre-incubation, increasing concentrations of tubocurarine were added to the bath solutions with 60 min (corresponding to six contractions) between each increase in tubocurarine. […] FIG. 5C similar to FIG. 5A but this muscle had been pre-incubated with neostigmine. […] The force integral (AUC) was determined at each tubocurarine concentration. Such AUC determinations were plotted against tubocurarine concentration for each muscle.
CIC-1 is a novel target in treatment of neuromuscular complications and it was therefore explored whether this approach for symptomatic treatment could be used in combination with existing symptomatic treatment approaches. […] To quantify the effect of compounds on tubocurarine sensitivity, the force at the different tubocurarine concentrations was determined. In plots of nerve-stimulated force against tubocurarine concentration (FIG. 5E) Kd, tub was determined by fitting four parameter sigmoidal functions to the data and the Kd, tub for the different compounds have been collected in Table 4.

rat soleus muscles [3] = assay: Recovery of nerve-stimulated force in isolated rat soleus muscles with ACh receptors inhibited by 2 μM rocuronium; details: 2 μM rocuronium alone; 8 muscles
Method: In a separate series of experiments with 8 isolated rat soleus muscles, ACh receptors were inhibited using 2 μM rocuronium, which is a clinically used neuromuscular blocking agent. Under these conditions the nerve-stimulated force was reduced to 51±5% of force before rocuronium. […] This illustrates the potential of these compounds to be used as reversal agents.

T2 sequence (P35523 whole entry): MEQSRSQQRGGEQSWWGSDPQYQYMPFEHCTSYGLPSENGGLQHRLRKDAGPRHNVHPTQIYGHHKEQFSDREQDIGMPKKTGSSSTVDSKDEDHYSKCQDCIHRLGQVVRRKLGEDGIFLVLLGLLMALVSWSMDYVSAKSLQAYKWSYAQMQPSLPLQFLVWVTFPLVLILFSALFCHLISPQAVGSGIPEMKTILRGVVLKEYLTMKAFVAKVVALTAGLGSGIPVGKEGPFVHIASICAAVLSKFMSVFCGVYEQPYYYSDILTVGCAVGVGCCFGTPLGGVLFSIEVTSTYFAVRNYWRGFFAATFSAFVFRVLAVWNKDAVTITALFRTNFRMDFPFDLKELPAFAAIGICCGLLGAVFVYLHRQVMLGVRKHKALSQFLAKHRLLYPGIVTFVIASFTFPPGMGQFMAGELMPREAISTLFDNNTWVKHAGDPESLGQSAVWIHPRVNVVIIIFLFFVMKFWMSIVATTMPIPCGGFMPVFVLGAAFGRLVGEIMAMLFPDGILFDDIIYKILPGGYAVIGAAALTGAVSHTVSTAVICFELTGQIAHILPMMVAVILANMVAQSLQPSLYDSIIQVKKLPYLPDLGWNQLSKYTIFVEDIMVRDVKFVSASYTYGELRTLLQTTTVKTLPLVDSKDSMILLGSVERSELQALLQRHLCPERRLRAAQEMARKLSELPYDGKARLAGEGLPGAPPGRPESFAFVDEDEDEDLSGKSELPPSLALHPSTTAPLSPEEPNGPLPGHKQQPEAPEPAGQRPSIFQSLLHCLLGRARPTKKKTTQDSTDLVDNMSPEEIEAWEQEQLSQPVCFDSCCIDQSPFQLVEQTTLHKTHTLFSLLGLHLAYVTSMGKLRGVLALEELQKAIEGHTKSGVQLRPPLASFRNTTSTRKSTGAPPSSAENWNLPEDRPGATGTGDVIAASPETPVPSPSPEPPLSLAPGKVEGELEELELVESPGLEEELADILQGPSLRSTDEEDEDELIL

| SMILES | Point increase (%) of initial force that was restored (rat soleus muscles [1]) | EC50 (CIC-1 channels) | Δ1/2 (mV) (human CIC-1 channels) | average increase in tetanic force (female Lewis rats; 40.0 mg/kg i.v.) | average increase in tetanic force (female Lewis rats; 26.5 mg/kg i.v.) | nerve-stimulated force at different tubocurarine concentrations compared to control (rat soleus muscles [2]) | nerve-stimulated force, % of force before rocuronium (rat soleus muscles [3]) |
| --- | --- | --- | --- | --- | --- | --- | --- |
| C[C@H](Oc1ccc(Br)cc1-c1ccno1)C(=O)O [Compound A-22, (2S)-2-[4-bromo-2-(1,2-oxazol-5-yl)phenoxy]propanoic acid] | 27% | 7.5 µM | 9.3 mV |  |  |  |  |
| O=C(O)[C@H](CC1CC1)Oc1ccc(Br)cc1-c1ccon1 [Compound A-33, (2S)-2-[4-bromo-2-(1,2-oxazol-3-yl)phenoxy]-3-cyclopropylpropanoic acid] | 35% | 4.6 µM | 15.1 mV |  |  |  |  |
| C[C@H](Oc1ccc(Cl)cc1-c1ccon1)C(=O)O [Compound A-34, (2S)-2-[4-chloro-2-(1,2-oxazol-3-yl)phenoxy]propanoic acid] | 43% | 2 µM | 8.1 mV |  |  |  |  |
| O=C(O)[C@H](CC1CC1)Oc1ccc(Cl)cc1-c1ccon1 [Compound A-41, (2S)-2-[4-chloro-2-(1,2-oxazol-3-yl)phenoxy]-3-cyclopropylpropanoic acid] | 25% | 4.3 µM |  | 36.4% |  |  |  |
| C[C@H](Oc1ccc(Br)cc1-c1cocn1)C(=O)O [Compound A-42, (2S)-2-[4-bromo-2-(1,3-oxazol-4-yl)phenoxy]propanoic acid] | 14% | 3.2 µM | 6.8 mV |  |  |  |  |
| CCOC[C@H](Oc1ccc(Br)cc1-c1ccon1)C(=O)O [Compound A-81, (2S)-2-[4-bromo-2-(1,2-oxazol-3-yl)phenoxy]-3-ethoxypropanoic acid] | 45% | 8.1 ± 1.2 µM |  |  | 52.9% |  |  |
| CN(C)C(=O)Oc1cccc([N+](C)(C)C)c1 [neostigmine, reference compound] |  |  |  |  |  | elevated nerve-stimulated force |  |
| C=CC[N+]1([C@H]2C[C@H]3[C@@H]4CC[C@H]5C[C@H](O)[C@@H](N6CCOCC6)C[C@]5(C)[C@H]4CC[C@]3(C)[C@H]2OC(C)=O)CCCC1 [rocuronium, reference compound] |  |  |  |  |  |  | 51±5% |
